Reference: patent US8431528B2, “Antibacterial Lactobacillus GG peptides and methods of use” (priority 2008, dated 2013)
Like-named read-outs stand apart in the source and are kept apart here. Ends that are not written are not given here.

Legend:
[1] = test system: methicillin-resistant Staphylococcus aureus (MRSA); type: cell-based; details: MRSA growth (FIG. 11)
Excerpt: LGG CM (19.7×10^12 CFU/ML) as positive control.

[2] = test system: Tetracycline-resistant E. coli TOPO10; details: Tetracycline-resistant E. coli 8.7×10^13 CFU/ML, 3 hours, A600
Experimental: TOPO10 (8.76×10^13) 10 ml+100 ml peptide (in LB)+900 ml LB, mixed, incubated at 37° C., 225 rpm for 3 hours, at the end, measure A600 and calculation the inhibition rate. […] LGG CM (9.7×10^12 CFU/ML) as positive control.
(§1) SM 10_pir (2.6×10^13CFU) or TOPO10 (8.76×10^13) 10 μl, peptides solution 100 μl and (peptides dissolved in LB broth) were added into 900 ul LB broth, mixed, incubated at 37° C., for 3 hours with shaking at 225 rpm, measure the A600 at the end. Relative inhibition activity was calculated according to the following formula (1−A600 of sample group/A600 of control group)×100%.

[3] = test system: Staphylococcus aureus; assay: Colony-count relative inhibition of Staphylococcus growth by peptide NPSRQERR; type: cell-based
[4] = test system: E. coli EAEC 042; type: cell-based; details: EAEC 042, 3 h
Experimental: FIGS. 6A-6B show: EAEC 042 growth time-course (FIG. 6A). Ten microliters of E. coli (2.16×10^14 CFU/mL) were added in 1 mL LB broth and incubated in 37° C., shaking at 225 rpm, measuring A600 every 30 minutes. […] Ten microliters of EAEC 042 (7.7×10^12CFU/mL) were added to 1 mL LB broth mixed, and 100 mL of each peptide solution dissolved in MRS was added to the mixture. MRS alone (100 mL) and LGG CM (100 mL) (initial concentration 19.7×10^12CFU/mL) were used as negative and positive controls, respectively. The mixture was cultured for 3 hours and the A600 measured at the end of incubation. Also shown is the mean percentage inhibition ±SD. N=3 for all synthetic peptides tested. N=7 for LGG CM.
The assay was performed as described (12), with minor modifications. Briefly, 10 mL E. coli EAEC 042 (7.7×10^14CFU/mL) was added to 1.0 mL LB Broth, mixed, and 100 mL of each LGG-derived synthetic peptide solution dissolved in MRS (for peptide final concentration see FIG. 6B) was added to the mixture. MRS alone (100 mL) and LGG CM 100 mL (LGG concentration: 19.7×10^12 CFU/mL) were used as negative and positive controls, respectively. The mixture was cultured for 3 hours with shaking at 225 rpm, 37° C., measuring A600 at the end.

[5] = test system: Salmonella typhi; assay: Colony-count relative inhibition of Salmonella growth by peptide NPSRQERR; type: cell-based; details: S. typhi 38×10^6 CFU/mL; 3 hours, then overnight colony count
[6] = test system: Kanamycine-resistant E. coli SM10_pir; details: Kanamycine-resistant E. coli 2.6×10^13 CFU/ML, 3 hours, A600
Experimental: SM10_pir (2.6×10^13) 10 ml+100 ml peptide (in LB)+900 ml LB, mixed, incubated at 37° C., 225 rpm for 3 hours, at the end, measure A600 and calculation the inhibition rate. […] LGG CM (9.7×10^12 CFU/ML) as positive control.
as §1

For “NPSRQEFF (peptide sequence SEQ ID NO 1 where residues 7 and 8 are both replaced with Phe for a zero net charge) [variant of NPSRQERR with net positive charge decreased from 2 to 0]”, which “inhibition activity lost relative to NPSRQERR” value ([1]; net positive charge decreased from 2 to 0) is on record?
The value was 12%.

Which results are given for NPSRQERR [NPSRQERR]?
inhibition rate ([2]; peptide 2.76 mM): 69.08%; peptide concentration at which 100% inhibition was reached ([3]; S. aureus 44×10^6 CFU/mL, 3 hours, then overnight colony count): 64 mmol/L; effect on S. aureus ([3]; compared with E. coli EAEC 042): less pronounced but dose dependent; E. coli growth inhibition [4]: 81.4%; peptide concentration at which 100% inhibition was reached [5]: 8 mmol/L; inhibition rate ([6]; peptide 2.76 mM): 43.75%

Which “inhibition activity increased relative to NPSRQERR” value ([1]; net positive charge increased from 2 to 3) does the source give for “NPSRQQRR (antibacterial peptide isolated from Lactobacillus GG) [variant of NPSRQERR with net positive charge increased from 2 to 3]” here?
The value was 16.5%.

How did the inhibition rate ([2]; peptide 3.31 mM) turn out when PDENK [PDENK] was run?
Its inhibition rate is 81.4%.

And the “E. coli growth inhibition” value [4]?
Its value is 68.7%.

What about the inhibition rate ([6]; peptide 3.31 mM) of the same substance?
The inhibition rate was 68.54%.

For VHTAPK [VHTAPK], which inhibition rate ([2]; peptide 3.25 mM) is on record?
The inhibition rate was 48.53%.

And the “E. coli growth inhibition” value [4]?
The value was 30%.

And the inhibition rate ([6]; peptide 3.25 mM)?
The inhibition rate was 29.45%.
